Reference: the NIST ThermoML archive (doi:10.1016/j.fluid.2007.01.029)
± gives the expanded uncertainty stated by the source.

Conditions: Crystal

Point of comparison: `c1ccc2ccccc2c1` [naphthalene], Normal melting temperature 79.99 ± 0.6 °C. Against it:
- C1CCCCC1 [cyclohexane] — lower, 6.48 ± 0.6 °C
- C1CC[C@H]2CCCC[C@@H]2C1 [trans-decahydronaphthalene] — lower, -30.44 ± 0.6 °C
- c1ccccc1 [benzene] — lower, 5.44 ± 0.6 °C
- C1CC[C@H]2CCCC[C@H]2C1 [cis-decahydronaphthalene] — lower, -45.08 ± 0.6 °C
